In US8828908B2, “Herbicidally active bicyclic 1,3-dione compounds” (Syngenta Limited, priority 2007, dated 2014) one finds pest or weed control data, which are given here for three compounds.

What all share (format): in vivo
For assay [1], the system named is Alopecurus myosuroides (ALOMY). Briefly: Example B pre-emergence herbicidal greenhouse test. The note with it: 480 h, evaluated after 20 days, 100=total damage to plant, 0=no damage. In outline: (§1)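 Spray of formulated compound 1 day after sowing (pre-emergence) or onto seedlings 10 days after sowing (post-emergence); greenhouse growth under optimum conditions; evaluation at 20 days (pre) or 15 days (post), 0-100 damage.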

Assay [2] concerns Setaria faberi (SETFA). As to the kind of experiment: Example B pre-emergence herbicidal greenhouse test. The note with it: 480 h, evaluated after 20 days, 100=total damage to plant, 0=no damage. In outline: as §1
Assay [3] relates to Echinochloa crus-galli (ECHCG). As to the kind of experiment: Example B pre-emergence herbicidal greenhouse test. To be noted: 480 h, evaluated after 20 days, 100=total damage to plant, 0=no damage. In outline:
as §1

For assay [4], the system named is Digitaria sanguinalis (DIGSA). Briefly: Example B pre-emergence herbicidal greenhouse test. To be noted: 480 h, evaluated after 20 days, 100=total damage to plant, 0=no damage. In outline: as §1
The test system of assay [5] is Avena fatua (AVEFA). Briefly: Example B pre-emergence herbicidal greenhouse test. The note with it: 480 h, evaluated after 20 days, 100=total damage to plant, 0=no damage. In outline:
as §1

The test system of assay [6] is Lolium perenne (LOLPE). Briefly: Example B pre-emergence herbicidal greenhouse test. The note with it: 480 h, evaluated after 20 days, 100=total damage to plant, 0=no damage. In outline: as §1
In assay [7] the test system is Alopecurus myosuroides (ALOMY). As to the kind of experiment: Example B post-emergence herbicidal greenhouse test. To be noted: 360 h, evaluated after 15 days, 100=total damage to plant, 0=no damage. In outline:
as §1

Assay [8] concerns Setaria faberi (SETFA). The description is as above. The note with it: 360 h, evaluated after 15 days, 100=total damage to plant, 0=no damage. In outline:
as §1

Assay [9] relates to Echinochloa crus-galli (ECHCG). The description is as above. The note with it: 360 h, evaluated after 15 days, 100=total damage to plant, 0=no damage. In outline: as §1
In assay [10] the test system is Digitaria sanguinalis (DIGSA). The assay is described as above. To be noted: 360 h, evaluated after 15 days, 100=total damage to plant, 0=no damage. In outline:
as §1

The subject of assay [11] is Avena fatua (AVEFA). The assay is described as above. The note with it: 360 h, evaluated after 15 days, 100=total damage to plant, 0=no damage. In outline: as §1
The subject of assay [12] is Lolium perenne (LOLPE). The assay is described as above. To be noted: 360 h, evaluated after 15 days, 100=total damage to plant, 0=no damage. In outline: as §1
Assay [13] has as its system Alopecurus myosuroides (ALOMY). Briefly: Example A pre-emergence herbicidal glasshouse test. The note with it: 312 h, Rate 250 g/ha, evaluated after 13 days, 100=total damage to plant, 0=no damage to plant. In outline: (§2)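 After sowing in standard soil, pots were cultivated 1 day (pre-emergence) or 8 days (post-emergence), then treated with an aqueous spray of the formulated active ingredient (acetone/water 50:50, 0.5% Tween 20). Phytotoxicity was assessed on a 0–100 scale at 13 days.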

For assay [14], the system named is Setaria faberi (SETFA). Briefly: Example A pre-emergence herbicidal glasshouse test. The note with it: 312 h, Rate 250 g/ha, evaluated after 13 days, 100=total damage to plant, 0=no damage to plant. In outline: as §2
Assay [15] concerns Echinochloa crus-galli (ECHCG). Briefly: Example A pre-emergence herbicidal glasshouse test. The note with it: 312 h, Rate 250 g/ha, evaluated after 13 days, 100=total damage to plant, 0=no damage to plant. In outline: as §2
Assay [16] concerns Avena fatua (AVEFA). Briefly: Example A pre-emergence herbicidal glasshouse test. To be noted: 312 h, Rate 250 g/ha, evaluated after 13 days, 100=total damage to plant, 0=no damage to plant. In outline: as §2
Assay [17] has as its system Amaranthus retroflexus (AMARE). Briefly: Example A pre-emergence herbicidal glasshouse test. To be noted: 312 h, Rate 250 g/ha, evaluated after 13 days, 100=total damage to plant, 0=no damage to plant. In outline:
as §2

The subject of assay [18] is Alopecurus myosuroides (ALOMY). Briefly: Example A post-emergence herbicidal glasshouse test. The note with it: 312 h, evaluated after 13 days, 100=total damage to plant, 0=no damage. In outline: as §2
For assay [19], the system named is Setaria faberi (SETFA). The description is as above. The note with it: 312 h, evaluated after 13 days, 100=total damage to plant, 0=no damage. In outline: as §2
The subject of assay [20] is Echinochloa crus-galli (ECHCG). The assay is described as above. To be noted: 312 h, evaluated after 13 days, 100=total damage to plant, 0=no damage. In outline: as §2
The test system of assay [21] is Avena fatua (AVEFA). The description is as above. To be noted: 312 h, evaluated after 13 days, 100=total damage to plant, 0=no damage. In outline: as §2
Assay [22] has as its system Amaranthus retroflexus (AMARE). The description is as above. To be noted: 312 h, evaluated after 13 days, 100=total damage to plant, 0=no damage. In outline:
as §2

SMILES strings stand for the structures.

On to `CCc1ccc(-c2ccc(Cl)c(C(F)(F)F)c2)cc1C1=C(O)[C@H]2CC[C@H](C2)C1=O` (single isomer, unassigned) [Compound T37], for which the pest or weed control (as a rule, the degree to which the test organism was suppressed or injured, in per cent) at 250 g/ha came out at 70% in [1]; 100% in the assay with Setaria faberi (SETFA) [2]; 100% in [3]; 90% in assay [4]; 60% in the assay with Avena fatua (AVEFA) [5]; 40% with Lolium perenne (LOLPE) [6]. The pest or weed control at 250 g/ha in assay [13] was 50%; in the assay with Setaria faberi (SETFA) [14] it was 90%; in assay [15], 90%; in the assay with Avena fatua (AVEFA) [16] it was 0%; in [17] it was 0%; in [18] it was 90%. Also, the pest or weed control at 250 g/ha with Setaria faberi (SETFA) [19] was determined as 100%; in assay [20] it was 100%; with Avena fatua (AVEFA) [21] it was 90%; in assay [22], 20%. Further, the pest or weed control at 125 g/ha amounted to 70% in assay [7]; 100% in the assay on Setaria faberi (SETFA) [8]; 100% in [9]; 100% in assay [10]; 90% with Avena fatua (AVEFA) [11]; 30% in the assay with Lolium perenne (LOLPE) [12].
`CCc1ccc(-c2ccc(F)c(Cl)c2)cc1C1=C(O)[C@H]2CC[C@H](C2)C1=O` (single isomer, unassigned) [Compound T39]: the pest or weed control at 250 g/ha in assay [1] is 70%; with Setaria faberi (SETFA) [2], 90%; in assay [3], 90%; in assay [4], 90%; with Avena fatua (AVEFA) [5] it was 40%; in the assay with Lolium perenne (LOLPE) [6], 90%. The pest or weed control at 250 g/ha in assay [13] is 50%; with Setaria faberi (SETFA) [14], 100%; in [15], 100%; in the assay on Avena fatua (AVEFA) [16], 30%; in assay [17], 20%; in assay [18], 60%. In addition, the pest or weed control at 250 g/ha in the assay with Setaria faberi (SETFA) [19] stood at 100%; in assay [20] it was 100%; in the assay with Avena fatua (AVEFA) [21], 30%; in assay [22], 0%. Also, the pest or weed control at 125 g/ha in assay [7] came out at 0%; in the assay with Setaria faberi (SETFA) [8], 70%; in assay [9], 80%; in assay [10] it was 80%; in the assay on Avena fatua (AVEFA) [11], 20%; in the assay on Lolium perenne (LOLPE) [12] it was 10%.
As to `CCc1ccc(-c2ccc(Cl)cc2F)cc1C1=C(O)[C@H]2CC[C@H](C2)C1=O` (single isomer, unassigned) [Compound T41], the pest or weed control at 250 g/ha was 90% in assay [1]; 100% with Setaria faberi (SETFA) [2]; 100% in [3]; 100% in [4]; 60% with Avena fatua (AVEFA) [5]; 100% with Lolium perenne (LOLPE) [6]. Further, the pest or weed control at 250 g/ha in assay [13] turned out to be 60%; in the assay with Setaria faberi (SETFA) [14], 100%; in assay [15], 90%; in the assay with Avena fatua (AVEFA) [16], 100%; in assay [17], 0%; in assay [18], 60%. The pest or weed control at 250 g/ha in the assay on Setaria faberi (SETFA) [19] stood at 100%; in assay [20], 100%; in the assay on Avena fatua (AVEFA) [21] it was 100%; in assay [22] it was 0%. The pest or weed control at 125 g/ha in [7] is 80%; in the assay with Setaria faberi (SETFA) [8] it was 100%; in [9], 100%; in [10] it was 100%; in the assay with Avena fatua (AVEFA) [11] it was 100%; with Lolium perenne (LOLPE) [12] it was 70%.
